Measured values as given in US20120329837A1, “CATHEPSIN INHIBITORS FOR TREATING MICROGLIA-MEDIATED NEURON LOSS IN THE CENTRAL NERVOUS SYSTEM” (ViroBay, Inc., priority 2011, published 2012).

biological target: T1, Human cathepsin S (Homo sapiens, UniProt P25774); experiment: Cathepsin S Assay (Z-Val-Val-Arg-AMC hydrolysis); format: biochemical; conditions: Table 2; Enzyme CatS
T1 sequence (P25774 115-331): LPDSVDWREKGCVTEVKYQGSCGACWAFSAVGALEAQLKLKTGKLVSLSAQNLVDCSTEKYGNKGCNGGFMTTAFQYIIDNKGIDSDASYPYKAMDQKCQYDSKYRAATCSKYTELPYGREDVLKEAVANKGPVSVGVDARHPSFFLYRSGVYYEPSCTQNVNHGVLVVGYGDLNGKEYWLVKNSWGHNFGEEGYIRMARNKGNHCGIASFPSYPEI

| IC50 [nM] | Compound |
| --- | --- |
| < 10 | N#CC1(NC(=O)[C@H](CC(F)(F)CC2CC2)N[C@@H](c2ccccc2)C(F)(F)F)CC1 |
| < 10 | COc1ccc([C@H](N[C@@H](CC(F)(F)CC2CC2)C(=O)NC2(C#N)CC2)C(F)(F)F)cc1 |
| < 10 | N#CC1(NC(=O)[C@H](CC(F)(F)CC2CC2)N[C@@H](c2ccc(F)c(F)c2)C(F)(F)F)CC1 |
| < 10 | N#CC1(NC(=O)[C@H](CC(F)(F)CC2CC2)N[C@@H](c2ccc(C(F)(F)F)cc2)C(F)(F)F)CC1 |

biological target: T1, Human cathepsin S; experiment: Cathepsin S Assay (Z-Val-Val-Arg-AMC hydrolysis); format: biochemical; conditions: Table 1
Procedure: Solutions of test compounds in varying concentrations were prepared in 10 μL of dimethyl sulfoxide (DMSO) and then diluted into assay buffer (40 μL, comprising: MES, 50 mM (pH 6.5); EDTA, 2.5 mM; and NaCl, 100 mM); β-mercaptoethanol, 2.5 mM; and BSA, […]. Human cathepsin S (0.05 pMoles in 25 μL of assay buffer) was added to the dilutions. The assay solutions were mixed for 5-10 seconds on a shaker plate, covered and incubated for 30 min at room temperature. Z-Val-Val-Arg-AMC (4 nMoles in 25 μL of assay buffer containing 10% DMSO) was added to the assay solutions and hydrolysis was followed spectrophotometrically (at λ 460 nm) for 5 min. Apparent inhibition constants (Ki) were calculated from the enzyme progress curves using standard mathematical models.

| Ki [nM] | Compound |
| --- | --- |
| < 10 | CCC(F)(F)C[C@H](N[C@@H](c1ccc(F)cc1)C(F)(F)F)C(=O)NC1(C#N)CC1 [drawing 30] |
| < 10 | CC(C)CC(F)(F)C[C@H](N[C@@H](c1ccc(F)cc1)C(F)(F)F)C(=O)NC1(C#N)CC1 [drawing 31] |
| < 10 | CCCC(F)(F)C[C@H](N[C@@H](c1ccc(F)cc1)C(F)(F)F)C(=O)NC1(C#N)CC1 [drawing 32] |
| < 10 | CCCCC(F)(F)C[C@H](N[C@@H](c1ccc(F)cc1)C(F)(F)F)C(=O)NC1(C#N)CC1 [drawing 33] |

same assay, conditions: Table 3

| Ki [nM] | Compound |
| --- | --- |
| < 20 | N#CC1(NC(=O)[C@H](CC(F)(F)Cc2ccccc2)N[C@@H](c2ccc(F)cc2)C(F)(F)F)CC1 |
| < 20 | N#CC1(NC(=O)[C@H](CC(F)(F)c2ccccc2)N[C@@H](c2ccc(F)cc2)C(F)(F)F)CC1 |
| < 20 | N#CC1(NC(=O)[C@H](CC(F)(F)CC2CC2)N[C@@H](c2ccc(F)cc2)C(F)(F)F)CC1 |
| < 20 | CCC(F)(F)CC[C@H](N[C@@H](c1ccc(F)cc1)C(F)(F)F)C(=O)NC1(C#N)CC1 |
| < 20 | CC(C)CC(F)(F)C[C@H](N[C@@H](c1ccc(F)cc1)C(F)(F)F)C(=O)NC1(C#N)CC1 [drawing 40] |
| < 20 | CCC(F)(F)C[C@H](N[C@@H](c1ccc(F)cc1)C(F)(F)F)C(=O)NC1(C#N)CC1 [drawing 42] |
| < 20 | CCCC(F)(F)C[C@H](N[C@@H](c1ccc(F)cc1)C(F)(F)F)C(=O)NC1(C#N)CC1 [drawing 43] |
| < 20 | CCCCC(F)(F)C[C@H](N[C@@H](c1ccc(F)cc1)C(F)(F)F)C(=O)NC1(C#N)CC1 [drawing 44] |

same assay, conditions: text statement for drawn compounds

| Ki [nM] | Compound |
| --- | --- |
| < 10 | CC(C)CS(=O)(=O)C[C@H](N[C@@H](c1ccc(F)cc1)C(F)(F)F)C(=O)NC1(C#N)CC1 |
